Here are results for four molecules from ChEMBL document CHEMBL1833935, “Metal-free cleavage efficiency toward DNA by a novel PNA analog-bridged macrocyclic polyamine” (Bioorg Med Chem Lett, 2011).

By ΔTm is commonly meant the change in melting temperature against a reference sample.

Molecules are shown by their SMILES. Calls of active or inactive are those of the source. The calls are words filed in the database; no cut-off is given here. *1 amine or outer side, *2 acyl side, *3 side chain or, on linkers, in order; H or OH if unused. Where a SMILES comes first, the peptide text is derived from it. Bridges are numbered along the chain shown (N, C = ends). Roman numbers before positions name the chains, in order. The star is where a group is joined. Hexamethylenediamine = C(CCCN[*:2])CCN[*:1]; Cyclenylacetyl = O=C(CN1CCNCCNCCNCC1)*; X1 = O=c1[nH]cc(C*)c(=O)[nH]1

What all share (assay type): nucleic-acid assay
For assay [1], the system named is Nucleic Acid. The assay is described as follows: Induction of Escherichia coli pUC19 DNA cleavage assessed as conversion of supercoiled plasmid DNA to nicked circular DNA at 10 uM after 48 hrs by agarose gel electrophoresis.
The subject of assay [2] is Nucleic Acid. The assay is described as follows: Induction of supercoiled Escherichia coli pUC19 DNA cleavage in HEPES buffer at pH 7.0 after 48 hrs by agarose gel electrophoresis in presence of 0.1 M tert-butyl alcohol.
Assay [3] relates to Nucleic Acid. The assay is described as follows: Induction of [5'-32P]-end labeled single stranded 26 mer DNA cleavage assessed as formation of ladder of DNA fragment at 10 to 100 uM after 48 hrs at pH 7.0 and < = 25 degC by agarose gel electrophoresis-based phosphorimager analysis.
In assay [4] the test system is Nucleic Acid. Nature of the assay: Induction of supercoiled Escherichia coli pUC19 DNA cleavage in HEPES buffer at pH 7.0 after 48 hrs by agarose gel electrophoresis in presence of 0.1 M potassium iodide.
Assay [5] relates to Nucleic Acid. The assay is described as follows: Induction of supercoiled Escherichia coli pUC19 DNA cleavage in HEPES buffer at pH 7.0 after 48 hrs by agarose gel electrophoresis in presence of 0.1 M NaN3.
Assay [6] concerns Nucleic Acid. Nature of the assay: Induction of Escherichia coli pUC19 DNA cleavage assessed as conversion of supercoiled plasmid DNA to linear DNA at 10 uM after 48 hrs by agarose gel electrophoresis.
Assay [7] deals with Nucleic Acid. The assay is described as follows: Induction of [5'-32P]-end labeled single stranded 26 mer DNA cleavage assessed as formation of ladder of DNA fragments in HEPES buffer at 10 to 100 uM after 48 hrs at pH 7.0 and 37 degC by agarose gel electrophoresis-based phosphorimager analysis.
In assay [8] the test system is Nucleic Acid. The assay is described as follows: Induction of [5'-32P]-end labeled single stranded 24 mer DNA cleavage assessed as formation of ladder of DNA fragment at 10 to 100 uM after 48 hrs at pH 7.0 and < = 25 degC by agarose gel electrophoresis-based phosphorimager analysis.
Assay [9] has as its system Nucleic Acid. Nature of the assay: Induction of [5'-32P]-end labeled single stranded 24 mer DNA cleavage assessed as formation of ladder of DNA fragment at 10 to 100 uM after 48 hrs at pH 7.0 and 37 degC by agarose gel electrophoresis-based phosphorimager analysis.
The test system of assay [10] is Nucleic Acid. The assay is described as follows: Induction of Escherichia coli pUC19 DNA cleavage assessed as conversion of supercoiled plasmid DNA to nicked circular DNA at 10 uM after 48 hrs by agarose gel electrophoresis in presence of 1 mM EDTA.
In assay [11] the test system is Nucleic Acid. The assay is described as follows: Binding affinity to calf thymus DNA assessed as change in melting temperature at compound/DNA ratio of 2:5. Conditions: Bos taurus.
Assay [12] relates to Nucleic Acid. The assay is described as follows: Binding affinity to calf thymus DNA assessed as change in melting temperature at compound/DNA ratio of 1:5. Conditions: Bos taurus.
Assay [13] has as its system Nucleic Acid. Nature of the assay: Induction of supercoiled Escherichia coli pUC19 DNA cleavage in HEPES buffer at pH 7.0 after 48 hrs by agarose gel electrophoresis in presence of 0.1 M DSMO.
In assay [14] the test system is Nucleic Acid. The assay is described as follows: Induction of Escherichia coli pUC19 DNA cleavage assessed as conversion of supercoiled plasmid DNA to nicked circular DNA at 20 uM after 48 hrs by agarose gel electrophoresis.
Assay [15] deals with Nucleic Acid. The assay is described as follows: Binding affinity to calf thymus DNA at compound/DNA ratio 2:5. Particulars: Bos taurus.

With `CC(C)(C)OC(=O)N1CCN(CC(=O)NCC(=O)N[C@@H](CSCc2c[nH]c(=O)[nH]c2=O)C(=O)NCC(=O)N[C@@H](CSCc2c[nH]c(=O)[nH]c2=O)C(=O)NCCCCCCNC(=O)[C@H](CSCc2c[nH]c(=O)[nH]c2=O)NC(=O)CNC(=O)[C@H](CSCc2c[nH]c(=O)[nH]c2=O)NC(=O)CNC(=O)CN2CCN(C(=O)OC(C)(C)C)CCN(C(=O)OC(C)(C)C)CCN(C(=O)OC(C)(C)C)CC2)CCN(C(=O)OC(C)(C)C)CCN(C(=O)OC(C)(C)C)CC1`, in assay [1], the result was Active.

Turning to `O=C(CN1CCNCCNCCNCC1)NCC(=O)N[C@@H](CSCc1c[nH]c(=O)[nH]c1=O)C(=O)NCC(=O)N[C@@H](CSCc1c[nH]c(=O)[nH]c1=O)C(=O)NCCCCCCNC(=O)[C@H](CSCc1c[nH]c(=O)[nH]c1=O)NC(=O)CNC(=O)[C@H](CSCc1c[nH]c(=O)[nH]c1=O)NC(=O)CNC(=O)CN1CCNCCNCCNCC1` (I: Cyclenylacetyl-GC(X1)GC(X1) / II: Cyclenylacetyl-GC(X1)GC(X1); linker I:C-II:C via Hexamethylenediamine), the outcome in [2], in [4], in assay [6], in assay [7], in assay [9] and in [10] was Active. Moreover, the result in [1] was Active. Further, the result in [3], in assay [5], in assay [8] and in assay [13] was inactive. For the same molecule, the ΔTm in assay [11] was 2.3 °C; in [12] it was 5.9 °C.

`C1CNCCNCCNCCN1`: in [14], the outcome was inactive.

Regarding `COC(=O)[C@H](CSCc1c[nH]c(=O)[nH]c1=O)NC(=O)CNC(=O)[C@H](CSCc1c[nH]c(=O)[nH]c1=O)NC(=O)CNC(=O)CN1CCNCCNCCNCC1` (Cyclenylacetyl-GC(X1)GC(X1)-OMe), the outcome in assay [14] was inactive. Moreover, the outcome in [1] and in assay [15] was Active. In addition, the shift in melting temperature (ΔTm) in assay [12] came out at 1.1 °C.
